Common to all, as to assay: relative viability (nuclei count vs DMSO), 5 days (fraction); higher = more cells survive
Compound in the test “AZ505 + Dasatinib”: C1CCC(CC1)N(CCNCCC2=C3C(=C(C=C2)O)NC(=O)CO3)C(=O)CCNCCC4=CC(=C(C=C4)Cl)Cl [AZ505] + Cc1nc(Nc2ncc(C(=O)Nc3c(C)cccc3Cl)s2)cc(N2CCN(CCO)CC2)n1 [Dasatinib] (partner 0.075 µM)
In short, it runs like this:
(§1)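 For relative viability, nuclei counts in treated wells were divided by those in vehicle wells. Lung cancer cell lines had been pin-tool dosed in 1536-well plates the day after seeding and cultured for 5 days, then fixed and stained in one step (final 0.05% Triton X-100, 1% formaldehyde, 1 ug/ml Hoechst) and imaged at 4×. Doses were one drug alone or a fixed anchor-drug dose plus five library-drug doses (not always all listed) in √10 steps, and values are duplicate-plate medians.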

Compound in the test “Dactolisib + Trametinib”: Cn1c(=O)n(-c2ccc(C(C)(C)C#N)cc2)c2c3cc(-c4cnc5ccccc5c4)ccc3ncc21 [Dactolisib] + CC(=O)Nc1cccc(-n2c(=O)n(C3CC3)c(=O)c3c(Nc4ccc(I)cc4F)n(C)c(=O)c(C)c32)c1 [Trametinib] (partner 0.02 µM)
An outline of the steps:
as §1

Compound in the test “Dactolisib + Navitoclax”: Cn1c(=O)n(-c2ccc(C(C)(C)C#N)cc2)c2c3cc(-c4cnc5ccccc5c4)ccc3ncc21 [Dactolisib] + CC1(C)CCC(c2ccc(Cl)cc2)=C(CN2CCN(c3ccc(C(=O)NS(=O)(=O)c4ccc(N[C@H](CCN5CCOCC5)CSc5ccccc5)c(S(=O)(=O)C(F)(F)F)c4)cc3)CC2)C1 [Navitoclax] (partner 0.5 µM)
In short, it runs like this: as §1

Compound in the test “Dactolisib + OSI-027”: Cn1c(=O)n(-c2ccc(C(C)(C)C#N)cc2)c2c3cc(-c4cnc5ccccc5c4)ccc3ncc21 [Dactolisib] + COc1cccc2cc(-c3nc([C@H]4CC[C@H](C(=O)O)CC4)n4ncnc(N)c34)[nH]c12 [OSI-027] (partner 0.5 µM)
An outline of the steps: as §1

Take UMC-11: the relative viability with AZ505 + Dasatinib (first compound 0.08 µM) was 0.444; with AZ505 + Dasatinib (first compound 0.253 µM) it was 0.459; with AZ505 + Dasatinib (first compound 0.8 µM) it was 0.458; with AZ505 + Dasatinib (first compound 2.53 µM) it was 0.472; with AZ505 + Dasatinib (first compound 8 µM), 0.658; with Dactolisib + Trametinib (first compound 0.002 µM) it was 0.642. Further, the relative viability in the test with Dactolisib + Trametinib (first compound 0.006325 µM) was 0.637; with Dactolisib + Trametinib (first compound 0.02 µM) it was 0.578; with Dactolisib + Trametinib (first compound 0.06325 µM), 0.282; with Dactolisib + Trametinib (first compound 0.2 µM), 0.2; in the test with Dactolisib + Navitoclax (first compound 0.002 µM) it was 0.339; with Dactolisib + Navitoclax (first compound 0.006325 µM) it was 0.286. Besides, the relative viability is 0.243 with Dactolisib + Navitoclax (first compound 0.02 µM); 0.131 with Dactolisib + Navitoclax (first compound 0.06325 µM); 0.124 with Dactolisib + Navitoclax (first compound 0.2 µM); 0.432 with Dactolisib + OSI-027 (first compound 0.002 µM); 0.537 in the test with Dactolisib + OSI-027 (first compound 0.006325 µM); 0.394 in the test with Dactolisib + OSI-027 (first compound 0.02 µM). The relative viability in the test with Dactolisib + OSI-027 (first compound 0.06325 µM) was determined as 0.283; with Dactolisib + OSI-027 (first compound 0.2 µM) it was 0.248.

For the origin of these results see the supplement of paper PMC10307832.
